Source: PMC6582486, “Stapled EGFR peptide reduces inflammatory breast cancer and inhibits additional HER-driven models of cancer” (Journal of Translational Medicine, 2019)
Where a SMILES comes first, the peptide text is derived from it. Bridges are numbered along the chain shown (N, C = ends). [ ]: non-standard residue; d: D form. R8 = C=CCCCCCC[C@@](C)(N)C(=O)O; S5 = C=CCCC[C@](C)(N)C(=O)O

Assays:
[1] = 28-day toxicity study: treatment observation frequency; format: in vivo, CD-1 mice; conditions: for Treatment observation: Animals with Signs: 28 days
Description: (§1) Toxicology was performed by IITRI. The study was conducted in compliance with the US Food and Drug Administration (FDA) good laboratory practice (GLP) Regulations (Code of Federal Regulations Title 21 Part 58) to evaluate the toxicokinetics, local tolerability, immunogenicity, and potential toxicity of SAH5-EJ1 following three times per week intravenous (IV) dosing for 28 days in mice. Male and female CD-1 IGS [Crl:CD1(ICR)] mice (135 per sex) were received from Wilmington, MA-based Charles River Laboratories, Inc.’s Kingston facility (Stone Ridge, NY).

[2] = 28-day toxicity study: injection site reactogenicity; format: in vivo, CD-1 mice; conditions: female; for Injection site reactogenicity: Animals with Signs: 28-day study
Description: as §1
Response measured at 6 and 24 hours post-injection.

Q: Which “Treatment observation: Discolored Urine (animals)” value ([1]; female, 5 mg/kg, 10 examined) does the source give for `CC[C@H](C)[C@H](NC(=O)[C@H](Cc1c[nH]cn1)NC(=O)[C@H](CCCNC(=N)N)NC(=O)[C@H](CCCNC(=N)N)NC(=O)[C@H](CCCNC(=N)N)NC(=O)[C@H](CCSC)NC(=O)[C@H](Cc1ccccc1)NC(=O)[C@H](C)NC(=O)[C@H](CCCNC(=N)N)NC(=O)[C@H](C)NC(=O)[C@H](CCC(N)=O)NC(=O)[C@H](CCCNC(=N)N)NC(=O)[C@H](C)NC(=O)[C@H](C)NC(=O)[C@H](C)NC(=O)[C@H](CCCNC(=N)N)NC(=O)[C@H](C)NC(=O)[C@@H](N)Cc1ccc(O)cc1)C(=O)N[C@H](C(=O)N[C@@H](CCCNC(=N)N)C(=O)N[C@@H](CCCCN)C(=O)N[C@@H](CCCNC(=N)N)C(=O)N[C@]1(C)CCCCCCC=CCCC[C@@](C)(C(=O)N[C@@H](CCCNC(=N)N)C(=O)N[C@@H](CCC(=O)O)C(N)=O)NC(=O)[C@H](CCC(N)=O)NC(=O)[C@H](CC(C)C)NC(=O)[C@H](CC(C)C)NC(=O)[C@H](CCCNC(=N)N)NC(=O)[C@H](CCCNC(=N)N)NC(=O)[C@H](CC(C)C)NC1=O)C(C)C` [SAH5-EJ1] (H-YARAAARQARAFMRRRHIVRKR[R8]LRRLLQ[S5]RE-NH2; staple 23-30) here?
A: 0

Q: And the “Treatment observation: General (animals)” value ([1]; female, 5 mg/kg, 10 examined)?
A: 0

Q: What about the “Treatment observation: Hunched Posture (animals)” value ([1]; female, 5 mg/kg, 10 examined) of the same compound?
A: 0

Q: And the “Treatment observation: Hypoactive (animals)” value ([1]; female, 5 mg/kg, 10 examined)?
A: 0

Q: And the “Treatment observation: Normal (animals)” value ([1]; female, 5 mg/kg, 10 examined)?
A: 10

Q: And the “Treatment observation: Animals with Signs” value ([1]; female, 5 mg/kg, 10 examined)?
A: 0

Q: What about the “Treatment observation: Discolored Urine (animals)” value ([1]; female, 10 mg/kg, 10 examined) of the same compound?
A: 0

Q: And the “Treatment observation: General (animals)” value ([1]; female, 10 mg/kg, 10 examined)?
A: 0

Q: And the “Treatment observation: Hunched Posture (animals)” value ([1]; female, 10 mg/kg, 10 examined)?
A: 0

Q: What about the “Treatment observation: Hypoactive (animals)” value ([1]; female, 10 mg/kg, 10 examined) of the same compound?
A: 0

Q: What about the “Treatment observation: Normal (animals)” value ([1]; female, 10 mg/kg, 10 examined) of the same compound?
A: 10

Q: What about the “Treatment observation: Animals with Signs” value ([1]; female, 10 mg/kg, 10 examined) of the same compound?
A: 0

Q: And the “Treatment observation: Discolored Urine (animals)” value ([1]; female, 15 mg/kg, 15 examined)?
A: 1

Q: What about the “Treatment observation: General (animals)” value ([1]; female, 15 mg/kg, 15 examined) of the same compound?
A: 2

Q: What about the “Treatment observation: Hunched Posture (animals)” value ([1]; female, 15 mg/kg, 15 examined) of the same compound?
A: 1

Q: What about the “Treatment observation: Hypoactive (animals)” value ([1]; female, 15 mg/kg, 15 examined) of the same compound?
A: 2

Q: And the “Treatment observation: Normal (animals)” value ([1]; female, 15 mg/kg, 15 examined)?
A: 15

Q: What about the “Treatment observation: Animals with Signs” value ([1]; female, 15 mg/kg, 15 examined) of the same compound?
A: 2

Q: What about the “Treatment observation: Discolored Urine (animals)” value ([1]; male, 5 mg/kg, 10 examined) of the same compound?
A: 0

Q: What about the “Treatment observation: General (animals)” value ([1]; male, 5 mg/kg, 10 examined) of the same compound?
A: 0

Q: And the “Treatment observation: Normal (animals)” value ([1]; male, 5 mg/kg, 10 examined)?
A: 10

Q: What about the “Treatment observation: Rough Coat (animals)” value ([1]; male, 5 mg/kg, 10 examined) of the same compound?
A: 0

Q: And the “Treatment observation: Animals with Signs” value ([1]; male, 5 mg/kg, 10 examined)?
A: 0

Q: And the “Treatment observation: Discolored Urine (animals)” value ([1]; male, 10 mg/kg, 10 examined)?
A: 0

Q: What about the “Treatment observation: General (animals)” value ([1]; male, 10 mg/kg, 10 examined) of the same compound?
A: 0

Q: And the “Treatment observation: Normal (animals)” value ([1]; male, 10 mg/kg, 10 examined)?
A: 10

Q: What about the “Treatment observation: Rough Coat (animals)” value ([1]; male, 10 mg/kg, 10 examined) of the same compound?
A: 0

Q: What about the “Treatment observation: Animals with Signs” value ([1]; male, 10 mg/kg, 10 examined) of the same compound?
A: 0

Q: What about the “Treatment observation: Discolored Urine (animals)” value ([1]; male, 15 mg/kg, 15 examined) of the same compound?
A: 1

Q: And the “Treatment observation: General (animals)” value ([1]; male, 15 mg/kg, 15 examined)?
A: 2

Q: What about the “Treatment observation: Normal (animals)” value ([1]; male, 15 mg/kg, 15 examined) of the same compound?
A: 15

Q: What about the “Treatment observation: Rough Coat (animals)” value ([1]; male, 15 mg/kg, 15 examined) of the same compound?
A: 2

Q: What about the “Treatment observation: Animals with Signs” value ([1]; male, 15 mg/kg, 15 examined) of the same compound?
A: 2

Q: And the “Edema (animals)” value ([2]; 5 mg/kg, 10 examined)?
A: 10

Q: What about the “Edema: 0 - Normal, no swelling (animals)” value ([2]; 5 mg/kg, 10 examined) of the same compound?
A: 10

Q: And the “Edema: 1 - Minimal, slight swelling (animals)” value ([2]; 5 mg/kg, 10 examined)?
A: 5

Q: And the “Edema: 2 - Mild, defined swelling (animals)” value ([2]; 5 mg/kg, 10 examined)?
A: 0

Q: And the “Edema: 3 - Moderate, defined swelling, raised border (animals)” value ([2]; 5 mg/kg, 10 examined)?
A: 0

Q: What about the “Erythema and Eschar Formation (animals)” value ([2]; 5 mg/kg, 10 examined) of the same compound?
A: 10

Q: And the “Erythema and Eschar: 0 - Normal (animals)” value ([2]; 5 mg/kg, 10 examined)?
A: 10

Q: What about the “Erythema and Eschar: 1 - Minimal (animals)” value ([2]; 5 mg/kg, 10 examined) of the same compound?
A: 4

Q: What about the “Erythema and Eschar: 2 - Mild, bright pink/pale, distinct (animals)” value ([2]; 5 mg/kg, 10 examined) of the same compound?
A: 4

Q: What about the “Erythema and Eschar: 3 - Moderate, bright red, distinct (animals)” value ([2]; 5 mg/kg, 10 examined) of the same compound?
A: 0

Q: What about the “Erythema and Eschar: 4 - Severe, dark red, pronounced (animals)” value ([2]; 5 mg/kg, 10 examined) of the same compound?
A: 1

Q: And the “Injection site reactogenicity: Animals with Signs” value ([2]; 5 mg/kg, 10 examined)?
A: 10

Q: What about the “Edema (animals)” value ([2]; 10 mg/kg, 10 examined) of the same compound?
A: 10

Q: And the “Edema: 0 - Normal, no swelling (animals)” value ([2]; 10 mg/kg, 10 examined)?
A: 10

Q: What about the “Edema: 1 - Minimal, slight swelling (animals)” value ([2]; 10 mg/kg, 10 examined) of the same compound?
A: 10

Q: And the “Edema: 2 - Mild, defined swelling (animals)” value ([2]; 10 mg/kg, 10 examined)?
A: 3

Q: And the “Edema: 3 - Moderate, defined swelling, raised border (animals)” value ([2]; 10 mg/kg, 10 examined)?
A: 0

Q: And the “Erythema and Eschar Formation (animals)” value ([2]; 10 mg/kg, 10 examined)?
A: 10

Q: What about the “Erythema and Eschar: 0 - Normal (animals)” value ([2]; 10 mg/kg, 10 examined) of the same compound?
A: 10

Q: What about the “Erythema and Eschar: 1 - Minimal (animals)” value ([2]; 10 mg/kg, 10 examined) of the same compound?
A: 10

Q: What about the “Erythema and Eschar: 2 - Mild, bright pink/pale, distinct (animals)” value ([2]; 10 mg/kg, 10 examined) of the same compound?
A: 7

Q: What about the “Erythema and Eschar: 3 - Moderate, bright red, distinct (animals)” value ([2]; 10 mg/kg, 10 examined) of the same compound?
A: 5

Q: And the “Erythema and Eschar: 4 - Severe, dark red, pronounced (animals)” value ([2]; 10 mg/kg, 10 examined)?
A: 2

Q: What about the “Injection site reactogenicity: Animals with Signs” value ([2]; 10 mg/kg, 10 examined) of the same compound?
A: 10

Q: And the “Edema (animals)” value ([2]; 15 mg/kg, 15 examined)?
A: 15
